According to patent US20230114207A1, “THE COMBINATION OF CYCLIN DEPENDENT KINASE 7 INHIBITOR AND IMMUNOTHERAPY FOR TREATMENT OF CANCER” (Dana-Farber Cancer Institute, Inc., priority 2019, published 2023):

Experiments:
[1] = system: intratumoral cell populations, RPP orthotopic mice; experiment: Single-cell RNA sequencing of tumor-bearing lungs; format: in vivo, mouse
Description: To account for interindividual variability, we harvested pooled fresh tumor-bearing lungs from two mice in two independent cohorts of RPP orthotopic mice which were treated with control, YKL-5-124, anti-PD-1 and combination treatment for seven days. Single cell suspensions were achieved as described above and were sorted using DAPI staining. Cells were then resuspended into single cells with 0.4% BSA for 10× genomics processing. Cell suspensions were loaded onto a 10× Genomics Chromium instrument to generate single-cell gel beads in emulsion (GEMs). Approximately 5,000 to 10,000 cells were loaded per channel. scRNA-seq libraries were prepared using the following Single Cell 3′ Reagent Kits: Chromium™ Single Cell 3′ Library & Gel Bead Kit v2 (PN-120237), Single Cell 3′ Chip Kit v2 (PN-120236) and i7 Multiplex Kit (PN-120262) (10× Genomics, Pleasanton, Calif., USA), and following the Single Cell 3′ Reagent Kits v2 User Guide (Manual Part #CG00052 Rev A). Libraries were run on an Illumina HiSeq 4000 system (SY-401-4001, Illumina) as 2×150 paired-end reads, one full lane per sample, for approximately >90% sequencing saturation.
The Cell Ranger Single Cell Software Suite, version 1.3 was used to perform sample de-multiplexing, barcode and UMI processing, and single-cell 3′ gene counting. A detailed description of the pipeline and specific instructions to run it can be found at: https://Support.10×genomics.com/single-cell-gene-expression/software/pipelines/latest/what-is-cell-ranger). A high quality gene expression matrix was created in sequential preprocessing steps as provided in the Seurat (v2.3.4) pipeline. First only genes that were detected in both independent scRNAseq datasets were retained and cells were excluded if respectively more than […] of detected genes were from mitochondrial or ribosomal origin or if less than 500 genes were detected. The count matrix was subsequently log-normalized with a scale-factor of 10000 and the obtained normalized matrix was further corrected by retaining the residuals after regressing out systematic changes due to number of detected UMIs, percent genes from mitochondrial or ribosomal origin.
Cells from both independent datasets were merged together in canonical correlation (CC) space using the intersection of highly variable genes, identified as genes with higher-than-expected variability in consecutive ranked expression bins, from both datasets. The implementation of CC alignment and selection of downstream dimensions to use was performed as described in the Seurat package. Cells were clustered using the Louvain algorithm based on a shared nearest-neighbor network. The final resolution of all subsequent clustering analyses was determined by the biological questions and the need for coarse or fine-grained detail as explored in the subsequent cluster annotation. Clusters were annotated using input from multiple sources, we i) calculated a stromal, cancer and immune score using the estimate (v1.0.13) package in R, ii) identified cluster specific gene expression markers based on gini-scores, iii) created a hierarchical tree based on Pearson correlation scores between clusters to visualize lineage relationships and iv) compared clusters to those of the Immgen database using the SingleR (v0.2.1) package in R. UMAP as implemented by the uwot (v0.0.0.9010) package in R was used to visualize clusters in 2D CC space. Overall this strategy was hierarchically used to assess all cells, cancer cells only, immune cells only and finally T-cells only.
In the first clustering step, several additional analyses were performed to remove dubious or non-reproducible clusters from downstream analyses. To identify contamination of immune cell clusters with cancer cells we performed k-means (2 centers) clustering on all cells on identified and known canonical markers (Epcam, Calca, Stmn1, Ascl1, Krt7, Nfib, Krt8, Krt18) specific to cancer cells. […]

[2] = system: CDK1 and CDK2 T-loop phosphorylation; experiment: Western blotting of CDK1 and CDK2 T-loop phosphorylation in SCLC lines; format: cell-based, mouse, human; details: representative panel of SCLC lines, 24 hours; 'as low as'
Description: Cells in culture were collected by centrifuging at 1,500 rpm and then washed with ice-cold PBS twice to completely remove residual medium. RIPA lysis buffer (Thermo Fisher Scientific, Cat #89900) supplemented with Halt™ Protease and Phosphatase Inhibitor Cocktail (Thermo Fisher Scientific, Cat #78440) was added to cell pellets to extract protein. Protein concentrations in lysates were measured by Pierce™ BCA Protein Assay Kit (Thermo Fisher Scientific, Cat #23225) and followed by the addition of SDS loading buffer (6×) and heated at 95° C. for 5 min. Equal amount of protein samples was subjected to 4-20% gradient gel SDS-PAGE and transferred to a nitrocellulose membrane (Bio-Rad, Cat #1704271). The membrane was blocked in Odyssey® Blocking Buffer (LI-COR, Cat #927-50003) at room temperature for 1 hour and incubated with appropriate antibodies at 4° C. overnight (Key Resources Table). Antibodies were diluted in TBST (TBS with 0.1% Tween) with 20% LI-COR Odyssey Blocking Buffer. On the next day, the membrane was washed with TBST (TBS with 0.1% Tween) four times and incubated with appropriate secondary antibodies (LI-COR, anti-Rabbit, Cat #925-32213; anti-Mouse, Cat #925-68072) at room temperature for 1 hour. Membranes were imaged using the LI-COR Odyssey® Imaging System.

[3] = system: Tnf, Cxcl10 and Cxcl9 in RPP631; experiment: RT-qPCR of Tnf, Cxcl10 and Cxcl9; format: cell-based, mouse; details: after 48 hr
Description: Cell pellets were collected and then subjected to total RNA extraction using RNeasy Plus Mini Kit (QIAGEN, Cat #74136) according to the manufacturer's instructions, or using TRIzol:Chloroform phase-separation by centrifugation followed by RNA precipitation using isopropanol. The extracted RNA was reversely transcribed into cDNA using the High-Capacity RNA-to-cDNA™ Kit (Thermo Fisher Scientific, Cat #4387406) according to the manufacturer's instructions. The obtained cDNA samples were diluted and used for RT-qPCR. PowerUp™ SYBR™ Green Master Mix (Thermo Fisher Scientific, Cat #A25742) or TaqMan Gene Expression Master Mix (Life Technologies, Cat #4369514). Gene specific primers with sequences listed in Table 3 were used for PCR amplification and detection on the StepOnePlus™ Real-Time PCR System (Thermo Fisher Scientific). RT-qPCR data were normalized to Actb (mouse cells) or GUSB (human cells) and presented as fold changes of gene expression in the test sample compared to the control.

[4] = system: SCLC cells (RPP631, DMS79, GLC16, NCI-H69, NCI-H82); experiment: Cell viability assay (CCK-8); format: cell-based, mouse, human
Description: Cells were seeded in 96-well plates (0.01-0.02×10^6 cells/well) in media and treated with YKL-5-124 at indicated concentrations and time points. Cell viability was measured using the MTS-based CCK-8 assay (Dojindo, Cat #CK04). Absorption at 450 nm was measured 3 hr after addition of CCK-8 reagent to cells.

Question: With `C=CC(=O)Nc1ccc(C(=O)Nc2n[nH]c3c2CN(C(=O)N[C@H](CN(C)C)c2ccccc2)C3(C)C)cc1` [YKL-5-124] as the molecule, how does the “frequencies of total immune cell components” value ([1]; compared with control group) read?
Answer: increase

Question: What about the DCs ([1]; in comparison to control) of the same molecule?
Answer: increase

Question: What about the myeloid compartments ([1]; in comparison to control) of the same molecule?
Answer: higher numbers of monocytes and neutrophils

Question: What about the “percentage of total T cells, NK cells and ILC cells” value ([1]; in comparison to control) of the same molecule?
Answer: significant increase

Question: And the “genes within the 'cell-cycle' and 'E2F target' signatures (GSEA)” value ([1]; in vivo)?
Answer: significantly downregulated

Question: What about the “immune response signaling ('Interferon gamma response', 'Inflammatory response')” value ([1]; in vivo) of the same molecule?
Answer: triggered robust immune response signaling

Question: And the “cell-cycle state distribution of cancer cells” value ([1]; in vivo, seven days)?
Answer: mainly arrested at G1 phase

Question: And the “percentage of S phase cells (cluster 4, 5 and 6)” value ([1]; in vivo, seven days)?
Answer: significant decrease

Question: What about the “c0, c8 and c9 clusters of naive-like CD8^+ T cells” value ([1]; mouse, in vivo) of the same molecule?
Answer: reduction

Question: What about the c4 percentage ([1]; mouse, in vivo) of the same molecule?
Answer: slight reduction

Question: What about the “concentrations robustly inhibiting CDK1 and CDK2 T-loop phosphorylation” value [2] of the same molecule?
Answer: ≥ 50 nM

Question: What about the “tumor cell expression of Tnf, Cxcl10 and Cxcl9” value [3] of the same molecule?
Answer: significantly stimulated

Question: And the “growth rate (cell viability) compared to control cells” value ([4]; all tested concentrations, up to 7 days)?
Answer: significant reduction

Question: What about the “kind of growth effect” value ([4]; up to day 7) of the same molecule?
Answer: cytostatic effect with a tendency of cytotoxic effects at longer time points
